In paper PMC2799336 (Journal of the American Chemical Society, 2009):

Tests used:
[1] = molecular target: T1, E. coli lipoic acid ligase (LplA) (Escherichia coli, UniProt P32099); experiment: HPLC kinetics of LplA-catalyzed lipoylation; assay type: biochemical
LplA [2] = conditions: 1:10, 1:100, 1:1000 mixtures of E2p:LAP1; 300 nM LplA, 30 minutes; PCR analysis
[3] = molecular target: T1, E. coli lipoic acid ligase (LplA); conditions: azide 7 ligation; cited from earlier work
LplA [4] = conditions: cited from earlier work
LplA [5] = tested on: LplA
LplA [6] = conditions: LAP2 fused to the C- rather than N-terminus of HP1; 50 nM LplA, 1 hour, 30 °C; HPLC
biotin ligase (BirA) = conditions: 12 hour reaction with 5 μM BirA; HPLC; data not shown
HeLa mammalian cells = experiment: Surface expression of LAP-CFP-TM fusions in mammalian cells; conditions: CFP fluorescence

T1 sequence (P32099 whole entry): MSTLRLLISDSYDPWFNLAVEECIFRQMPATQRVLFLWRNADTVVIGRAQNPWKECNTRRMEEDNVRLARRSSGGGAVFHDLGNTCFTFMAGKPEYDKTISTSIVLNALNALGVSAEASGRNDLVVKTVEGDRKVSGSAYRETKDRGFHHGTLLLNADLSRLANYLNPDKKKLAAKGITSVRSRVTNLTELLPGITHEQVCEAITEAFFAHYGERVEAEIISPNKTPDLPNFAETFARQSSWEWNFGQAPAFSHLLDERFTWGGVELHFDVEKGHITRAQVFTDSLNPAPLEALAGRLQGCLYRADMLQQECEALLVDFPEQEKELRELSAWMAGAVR

Row | Sequence | Km ([1]; read-out: Km (estimated), LAP1, estimated, measured by HPLC, data not shown) | yeast remaining after one round of selection (LplA [2]) | kcat [3] | ligation of lipoic acid, alkyl azide, aryl azide (LplA [4]; LAP1 fusion proteins) | labeling at the cell surface (LplA [4]; LAP1 fusions) | ligation of bromoalkanoic acid and coumarin (LplA [4]; LAP1 fusions) | kcat/Km fold worse than natural lipoate and biotin acceptor proteins ([1]; LAP2 versus natural acceptor proteins) | kcat/Km fold better than LAP1 ([1]; LAP2 versus previous rationally-designed 22-amino acid LAP1) | kcat/Km ([1]; lipoylation of synthetic LAP2 peptide, 50 nM LplA, 750 μM lipoic acid, 2 mM ATP, 5 mM magnesium acetate in DPBS, 30 °C, LAP2 5.5-352 μM, HPLC, Michaelis-Menten) | cell surface lipoylation compared with E2p (LplA [5]; CFP-TM fusions in HEK cells, average signal ratios, Figure S5B) | cell surface lipoylation of fusion proteins (LplA [5]; even at low expression levels) | conversion to lipoylated product, C-terminal HP1 fusion (LplA [6]) | biotinylation by BirA (biotin ligase (BirA)) | recognition by LplA by position in fusion (LplA [4]; LAP2) | labeling in the cytosol / inside living cells (LplA [4]) | cell surface expression (HeLa mammalian cells)
1 | DEVLVEIETDKAVLEVPGGEEE [LAP1] | > 200 µM | could not be detected | 0.048 ± 0.001 s⁻¹ | in vitro and in cell lysate, but not on the cell surface except under conditions of high LAP1-POI over-expression | difficult to label at the cell surface | could not be ligated to LAP1 fusions in any context |  |  |  |  |  |  |  |  |  | 
2 | GFEIDKVWYDLDA [LAP2] |  |  |  |  |  |  | 8 fold | > 70 fold | 16500 M⁻¹ s⁻¹ | comparable even to E2p | could easily lipoylate cell surface LAP2 fusion proteins, even at low expression levels | decreased somewhat, but was still higher than all other LAP sequences at the N-terminus | no biotinylation | can be recognized by LplA at the N-terminus, C-terminus, and internally | allows fluorophore tagging of intracellular proteins | clear cell surface expression
